Results: PubChem BioAssay (NCI)
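Step 1: Grow cells in 96-well plates. Step 2: Expose to compound for 48 hours at 5 concentrations. Step 3: Interpolate endpoints linearly; if unreached, use highest concentration. GI50 = concentration required for 50% inhibition of growth. The concentration for full growth arrest is given as TGI.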 Where a SMILES comes first, the peptide text is derived from it. [ ]: non-standard residue; d: D form. The star is where a group is joined. X13 = OC[C@H](CC1CCCCC1)N*; Aib = CC(C)(N)C(=O)O

Assays:
Experiment in all cases: DTP human tumour cell line panel, 48 h
[1] = tested on: EKVX NSCLC
[2] = tested on: OVCAR-8 ovarian
[3] = tested on: ACHN renal
[4] = tested on: SNB-19 CNS
[5] = tested on: MDA-MB-435
[6] = tested on: LOX IMVI melanoma
[7] = tested on: MCF7 breast
[8] = tested on: K-562 leukemia
[9] = tested on: UO-31 renal
[10] = tested on: HOP-92 NSCLC
[11] = tested on: NCI-H23 lung
[12] = tested on: MDA-MB-231 breast
[13] = tested on: SK-MEL-28 melanoma
[14] = tested on: SNB-75 CNS
[15] = tested on: CCRF-CEM leukemia
[16] = tested on: A549 NSCLC
[17] = tested on: M14 melanoma
[18] = tested on: NCI-H522 lung
[19] = tested on: OVCAR-5 ovarian
[20] = tested on: SW-620 colon
[21] = tested on: A498 renal
[22] = tested on: SF-295 CNS
[23] = tested on: TK-10 renal
[24] = tested on: BT-549 breast
[25] = tested on: DU-145 prostate
[26] = tested on: HCC-2998 colon
[27] = tested on: SK-MEL-5 melanoma
[28] = tested on: HS 578T breast
[29] = tested on: KM12 colon
[30] = tested on: COLO 205 colon
[31] = tested on: U251 CNS
[32] = tested on: SR leukemia
[33] = tested on: T-47D breast
[34] = tested on: 786-0 renal
[35] = tested on: NCI-H460 lung
[36] = tested on: RPMI-8226 leukemia
[37] = tested on: RXF 393 renal
[38] = tested on: HCT-116 colon
[39] = tested on: NCI-H226 lung
[40] = tested on: SF-539 CNS
[41] = tested on: IGROV1 ovarian
[42] = tested on: UACC-62 melanoma
[43] = tested on: HL-60(TB) leukemia
[44] = tested on: OVCAR-4 ovarian
[45] = tested on: NCI/ADR-RES ovarian
[46] = tested on: SK-OV-3 ovarian
[47] = tested on: SK-MEL-2 melanoma
[48] = tested on: MALME-3M melanoma
[49] = tested on: HCT-15 colon
[50] = tested on: PC-3 prostate
[51] = tested on: SF-268 CNS
[52] = tested on: UACC-257 melanoma
[53] = tested on: MOLT-4 leukemia
[54] = tested on: OVCAR-3 ovarian
[55] = tested on: SN12C renal
[56] = tested on: HT29 colon
[57] = tested on: HOP-62 NSCLC

CC(=O)NC(C)(C)C(=O)N[C@@H](C)C(=O)NC(C)(C)C(=O)N[C@@H](C)C(=O)NC(C)(C)C(=O)N[C@@H](C)C(=O)N[C@@H](CCC(N)=O)C(=O)NC(C)(C)C(=O)N[C@H](C(=O)NC(C)(C)C(=O)NCC(=O)N[C@@H](CC(C)C)C(=O)NC(C)(C)C(=O)N1CCC[C@H]1C(=O)N[C@H](C(=O)NC(C)(C)C(=O)NC(C)(C)C(=O)N[C@@H](CCC(N)=O)C(=O)N[C@@H](CCC(N)=O)C(=O)N[C@H](CO)CC1CCCCC1)C(C)C)C(C)C (Ac-[Aib]A[Aib]A[Aib]AQ[Aib]V[Aib]GL[Aib]PV[Aib][Aib]QQ-X13) gave a GI50 [1] of 2.29 µM, a TGI [1] greater than 5 µM and a GI50 [2] greater than 4.25 µM. The TGI [2] was greater than 5 µM, the GI50 [3] was greater than 5 µM and the TGI [3] was greater than 5 µM. For the same molecule, the GI50 [4] was 1.79 µM, the TGI [4] was greater than 5 µM and the GI50 [5] was 0.834 µM. For the same molecule, the TGI [5] was greater than 5 µM, the GI50 [6] was 1.56 µM and the TGI [6] was greater than 5 µM. For the same molecule, the GI50 [7] was 0.399 µM, the TGI [7] was greater than 5 µM and the GI50 [8] was 2.2 µM. It also gave a TGI [8] greater than 5 µM, a GI50 [9] greater than 3.96 µM and a TGI [9] greater than 5 µM. For the same molecule, the GI50 [10] was 1.01 µM, the TGI [10] was 3.8 µM and the GI50 [11] was 1.38 µM. It also gave a TGI [11] greater than 5 µM, a GI50 [12] of 2.49 µM and a TGI [12] greater than 5 µM. The GI50 [13] was 0.199 µM, the TGI [13] was 1.37 µM and the GI50 [14] was 1.07 µM. For the same molecule, the TGI [14] was greater than 5 µM, the GI50 [15] was greater than 4.8 µM and the TGI [15] was greater than 5 µM. The GI50 [16] was greater than 5 µM, the TGI [16] was greater than 5 µM and the GI50 [17] was 0.221 µM. For the same molecule, the TGI [17] was greater than 5 µM, the GI50 [18] was 1.04 µM and the TGI [18] was greater than 5 µM. For the same molecule, the GI50 [19] was greater than 4.67 µM, the TGI [19] was greater than 5 µM and the GI50 [20] was 1.65 µM. It also gave a TGI [20] greater than 5 µM, a GI50 [21] greater than 4.12 µM and a TGI [21] greater than 5 µM. It also gave a GI50 [22] of 1.64 µM, a TGI [22] greater than 5 µM and a GI50 [23] of 3.43 µM. It also gave a TGI [23] greater than 5 µM, a GI50 [24] of 1.43 µM and a TGI [24] greater than 5 µM. It also gave a GI50 [25] of 1.33 µM, a TGI [25] greater than 5 µM and a GI50 [26] of 2.91 µM. For the same molecule, the TGI [26] was greater than 5 µM, the GI50 [27] was 1.1 µM and the TGI [27] was greater than 3.14 µM. For the same molecule, the GI50 [28] was 3.71 µM, the TGI [28] was greater than 5 µM and the GI50 [29] was greater than 4.1 µM. It also gave a TGI [29] greater than 5 µM, a GI50 [30] of 0.178 µM and a TGI [30] of 1.22 µM. The GI50 [31] was 2.19 µM, the TGI [31] was greater than 5 µM and the GI50 [32] was 3.37 µM. The TGI [32] was greater than 5 µM, the GI50 [33] was 1.26 µM and the TGI [33] was greater than 5 µM. The GI50 [34] was greater than 5 µM, the TGI [34] was greater than 5 µM and the GI50 [35] was 1.51 µM. It also gave a TGI [35] greater than 5 µM, a GI50 [36] of 1.16 µM and a TGI [36] of 4 µM. It also gave a GI50 [37] of 2.63 µM, a TGI [37] greater than 5 µM and a GI50 [38] of 2.04 µM. The TGI [38] was greater than 5 µM, the GI50 [39] was 2.06 µM and the TGI [39] was greater than 5 µM. It also gave a GI50 [40] of 2.28 µM, a TGI [40] greater than 5 µM and a GI50 [41] of 3.06 µM. For the same molecule, the TGI [41] was greater than 5 µM, the GI50 [42] was 0.609 µM and the TGI [42] was greater than 5 µM. It also gave a GI50 [43] of 1.3 µM, a TGI [43] greater than 5 µM and a GI50 [44] of 1.58 µM. The TGI [44] was greater than 5 µM, the GI50 [45] was greater than 5 µM and the TGI [45] was greater than 5 µM. It also gave a GI50 [46] greater than 5 µM, a TGI [46] greater than 5 µM and a GI50 [47] of 1.44 µM. The TGI [47] was greater than 5 µM, the GI50 [48] was 0.0306 µM and the TGI [48] was 0.239 µM. The GI50 [49] was greater than 5 µM, the TGI [49] was greater than 5 µM and the GI50 [50] was 1.98 µM. It also gave a TGI [50] greater than 5 µM, a GI50 [51] of 2.24 µM and a TGI [51] greater than 5 µM. For the same molecule, the GI50 [52] was 0.446 µM, the TGI [52] was 2.67 µM and the GI50 [53] was greater than 5 µM. The TGI [53] was greater than 5 µM, the GI50 [54] was 1.68 µM and the TGI [54] was greater than 5 µM. For the same molecule, the GI50 [55] was 1.82 µM, the TGI [55] was greater than 5 µM and the GI50 [56] was 0.286 µM. For the same molecule, the TGI [56] was greater than 5 µM, the GI50 [57] was greater than 5 µM and the TGI [57] was greater than 5 µM.
